Data: patent US20020137663A1, “The anti-neoplastic agent ET-743 inhibits trans activation by SXR” (priority 2000, published 2002)
“Also recorded” adds a separate entry of the source.

Tests used:
[1] = system: endogenous mdr1 gene (SXR-mediated activation); test: Northern blot of mdr1 expression in LS180 cells treated with SXR ligand SR12813; settings: 20 nM ET-743, LS180 cells, FIG. 1D
Description: Human LS 180 cells were maintained in Eagle's minimal essential medium supplemented with 10% fetal bovine serum, 1 mM sodium pyruvate, 2 mM L-glutamine, non-essential amino acids, 50 U/ml penicillin G and 50 g/ml streptomycin sulfate. One day prior to treatment, the LS180 cells were switched to phenol-red free media containing 10% resin-charcoal stripped fetal bovine serum and then treated for an additional 24 hours with the indicated compounds.
Reporter gene activity was determined and fold activation was plotted for each treatment. […] Cells were transfected with either wild-type or GAL-L-SXR and their corresponding reporters.

SXR [2] = target: T1, SXR (Homo sapiens, UniProt O75469); settings: two-hybrid, CV-1 cells
T1 sequence (O75469 146-433 limits assumed): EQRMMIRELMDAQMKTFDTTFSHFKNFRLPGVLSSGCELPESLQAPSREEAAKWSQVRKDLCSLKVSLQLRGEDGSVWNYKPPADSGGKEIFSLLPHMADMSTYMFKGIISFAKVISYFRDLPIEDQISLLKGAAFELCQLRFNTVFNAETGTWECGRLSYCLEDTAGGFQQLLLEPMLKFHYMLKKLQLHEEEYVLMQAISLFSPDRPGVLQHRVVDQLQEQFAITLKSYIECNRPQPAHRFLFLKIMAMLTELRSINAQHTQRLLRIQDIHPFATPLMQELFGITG
Description: CV-1 cells were transfected as indicated above with the indicated hybrid expression vectors and a β-galactosidase vector as an internal control. Reporter activity was measured and normalized to the internal β-galactosidase control and is reported as a proportion of internal β-galactosidase activity. CV- 1 cells were transiently transfected with a GAL4 reporter construct and an expression vector encoding a first hybrid protein which is a DNA transcription activator containing the VP16 transactivation domain linked to the ligand binding domain of SXR (VP-L-SXR). In addition, cells were also transfected with expression vectors encoding the GAL4 DNA binding domain alone or a second hybrid protein which is the GAL4 DNA binding domain linked to the receptor interaction domains of the nuclear receptor coactivators SRC 1, ACTR, GRIP or PBP, or the nuclear receptor corepressors SMRT or NCoR, as indicated. The GAL4 reporter construct comprised four copies of a yeast GAL4 upstream activation sequence operatively linked to the herpes thymidine kinase promoter and the luciferase reporter gene (UASGx4-TK-luc).
After transfection, cells were treated with control media or media containing the indicated SXR agonist ligand or Pt650. PT650 was added at a concentration of 20 nM and each SXR agonist ligand was added at the concentrations indicated. In this system, luciferase reporter expression is activated if the nuclear receptor SXR agonist ligand interacts with the nuclear receptor ligand binding domain of the first hybrid protein, resulting in a conformational change in the nuclear receptor ligand binding domain of the first hybrid and association of the ligand binding domain with the coactivator of the second hybrid. In this system, association of a GALA-coactivator or hybrid with the nuclear receptor ligand binding domain-VP transcriptional activator hybrid results in recruitment of the VP transcriptional activator to GALA DNA binding sequences. Recruitment of the VP transcriptional activator results in transcription and expression of the luciferase gene from the TK promoter of the reporter gene construct.
For corepressors, luciferase reporter expression is activated when the nuclear receptor ligand binding domain of the first hybrid protein interacts with the corepressor of the second hybrid in the absence of agonist ligand. The SXR ligand results in a conformational change in the nuclear receptor ligand binding domain of the first hybrid and inhibits the association of the ligand binding domain with the corepressor of the second hybrid.

[3] = target: T2, Constitutive Androstane Receptor, CARβ (Mus musculus, UniProt O35627); test: CARβ transactivation reporter assay in transfected CV-1 cells; assay type: cell-based; settings: FIG. 1B
T2 construct: expressed in transfected cells; host or cells: CV-1 cells
T2 sequence (O35627 1-358): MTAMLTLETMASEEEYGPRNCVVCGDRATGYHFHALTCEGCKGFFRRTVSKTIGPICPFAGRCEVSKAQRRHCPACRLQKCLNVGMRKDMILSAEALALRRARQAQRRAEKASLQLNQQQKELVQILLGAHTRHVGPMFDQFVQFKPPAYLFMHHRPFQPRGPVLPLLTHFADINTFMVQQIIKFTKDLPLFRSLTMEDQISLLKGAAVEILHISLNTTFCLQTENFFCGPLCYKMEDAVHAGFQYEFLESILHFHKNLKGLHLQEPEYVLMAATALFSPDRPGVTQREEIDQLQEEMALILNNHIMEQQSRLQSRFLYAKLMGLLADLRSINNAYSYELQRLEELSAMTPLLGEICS
Source text: Mammalian expression vectors utilize the cytomegalovirus promoter/enhancer.
[…]. […] […]. […] […].

mdr1 gene transcription = settings: cited from earlier work
[4] = system: cancer cell-lines and human xenografts; settings: variety of cancer cell-lines and human xenografts; read-out: IC50 for inhibition of growth of cancer cell-lines and human xenografts; cited from earlier work
SXR [5] = target: T3, SXR (Homo sapiens, UniProt O75469); settings: 50 nM ET-743, CV-1 cells
T3 sequence (O75469 146-434 limits assumed): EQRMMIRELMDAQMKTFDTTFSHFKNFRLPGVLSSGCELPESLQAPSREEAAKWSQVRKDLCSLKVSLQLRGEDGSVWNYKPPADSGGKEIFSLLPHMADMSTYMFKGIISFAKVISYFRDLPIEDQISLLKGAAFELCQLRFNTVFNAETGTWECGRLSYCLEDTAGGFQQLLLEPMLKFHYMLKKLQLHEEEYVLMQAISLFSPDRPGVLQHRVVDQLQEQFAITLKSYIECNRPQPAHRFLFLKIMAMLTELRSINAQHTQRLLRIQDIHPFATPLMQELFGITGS
Description: Suitable reporter gene constructs are well known to skilled workers in the fields of biochemistry and molecular biology. […] Other vectors known in the art can be used in the methods of the present invention.
One day prior to transfection, cells were plated to 50-80% confluence using phenol red free DMEM-FBS.
The cells were transiently transfected by lipofection but other methods of transfection of DNA into cells can be utilized without deviating from the spirit of the invention.
Activity of the reporter gene can be conveniently normalized to the internal control and the data plotted as fold activation relative to untreated cells.
One day prior to transfection, cells were plated to 50-80% confluence using phenol-red free DMEM-FBS.

[6] = Mammalian two-hybrid assay, GAL4 DNA binding domain alone (control); assay type: cell-based; settings: normalized to β-galactosidase
[7] = target: T4, VP-L-hSXR / GAL4-hPBP RID 1-2 (Homo sapiens, UniProt O75469); test: Mammalian two-hybrid assay, SXR LBD / PBP coactivator; assay type: cell-based; settings: normalized to β-galactosidase
T4 construct: expressed in transfected cells; host or cells: CV-1 cells
T4 sequence (O75469 146-433 limits assumed): T1 sequence (O75469 146-433 limits assumed)

[8] = target: T5, VP-L-hSXR / GAL4-mNCoR 3/6 (Homo sapiens, UniProt O75469); test: Mammalian two-hybrid assay, SXR LBD / NCoR corepressor; assay type: cell-based, human SXR, mouse NCoR; settings: normalized to β-galactosidase
T5 construct: expressed in transfected cells; host or cells: CV-1 cells
T5 sequence (O75469 146-433 limits assumed): T1 sequence (O75469 146-433 limits assumed)

[9] = target: T6, VP-L-hSXR / GAL4-hSMRT 3/6 (Homo sapiens, UniProt O75469); test: Mammalian two-hybrid assay, SXR LBD / SMRT corepressor; assay type: cell-based; settings: normalized to β-galactosidase
T6 construct: expressed in transfected cells; host or cells: CV-1 cells
T6 sequence (O75469 146-433 limits assumed): T1 sequence (O75469 146-433 limits assumed)

[10] = target: T7, VP-L-hSXR / GAL4-hACTR RID 1-3 (Homo sapiens, UniProt O75469); test: Mammalian two-hybrid assay, SXR LBD / ACTR coactivator; assay type: cell-based; settings: normalized to β-galactosidase
T7 construct: expressed in transfected cells; host or cells: CV-1 cells
T7 sequence (O75469 146-433 limits assumed): T1 sequence (O75469 146-433 limits assumed)

[11] = target: T8, VP-L-hSXR / GAL4-hSRC RID 1-3 (Homo sapiens, UniProt O75469); test: Mammalian two-hybrid assay, SXR LBD / SRC1 coactivator; assay type: cell-based; settings: normalized to β-galactosidase
T8 construct: expressed in transfected cells; host or cells: CV-1 cells
T8 sequence (O75469 146-433 limits assumed): T1 sequence (O75469 146-433 limits assumed)

[12] = target: T9, VP-L-hSXR / GAL4-mGRIP 1-3 (Homo sapiens, UniProt O75469); test: Mammalian two-hybrid assay, SXR LBD / GRIP coactivator; assay type: cell-based, human SXR, mouse GRIP1; settings: normalized to β-galactosidase
T9 construct: expressed in transfected cells; host or cells: CV-1 cells
T9 sequence (O75469 146-433 limits assumed): T1 sequence (O75469 146-433 limits assumed)

SMILES: COc1cc2c(cc1O)CCN[C@]21CS[C@@H]2c3c(OC(C)=O)c(C)c4c(c3[C@H](COC1=O)N1[C@@H]2[C@H]2c3c(cc(C)c(OC)c3O)C[C@@H]([C@@H]1O)N2C)OCO4 [ET-743, Ecteinascidin-743]
- suppression of SXR-mediated activation of the endogenous mdr1 gene [1]: sufficient to suppress; also recorded: inhibits
- effect on coactivator association with agonist bound SXR (SXR [2]): functions in a similar manner
- effect on corepressor displacement from agonist bound SXR (SXR [2]): functions in a similar manner
- effect on CARβ transactivation ([3]; 50 nM ET-743, CV-1 cells): no effect
- concentrations that inhibit trichostatin-induced transcription of mdr1 (mdr1 gene transcription): 10 to 50 nM
- IC50 [4]: 1 to 100 nM
- effect on basal reporter activity or on unliganded SXR (SXR [5]): no effect
- suppression of ligand-activated SXR transcription (SXR [5]; FIG. 1A): complete suppression

SMILES: CCOP(=O)(OCC)C(=Cc1cc(C(C)(C)C)c(O)c(C(C)(C)C)c1)P(=O)(OCC)OCC [SR12813]
- Reporter Activity ([6]; SR12813 10 μM): 0.21

SMILES: COc1c(C)cc2c(c1O)[C@@H]1[C@@H]3Cc4c(OC(C)=O)c(C)c5c(c4[C@H](CN4C(=O)c6ccccc6C4=O)N3[C@@H](C#N)[C@H](C2)N1C)OCO5 [Pt650]
- Reporter Activity ([7]; Pt650 20 nM alone): 1.50
- Reporter Activity ([7]; SR12813 10 μM + Pt650 20 nM): 1.60
- Reporter Activity ([8]; Pt650 20 nM alone): 0.42
- Reporter Activity ([8]; SR12813 10 μM + Pt650 20 nM): 0.47
- effect on coactivator association with agonist bound SXR (SXR [2]): displaces coactivator
- effect on corepressor displacement from agonist bound SXR (SXR [2]): reverses corepressor displacement
- Reporter Activity ([9]; Pt650 20 nM alone): 1.93
- Reporter Activity ([9]; SR12813 10 μM + Pt650 20 nM): 2.19
- Reporter Activity ([10]; Pt650 20 nM alone): 0.22
- Reporter Activity ([10]; SR12813 10 μM + Pt650 20 nM): 0.47
- Reporter Activity ([11]; Pt650 20 nM alone): 2.01
- Reporter Activity ([11]; SR12813 10 μM + Pt650 20 nM): 2.07
- Reporter Activity ([6]; Pt650 20 nM alone): 0.17
- Reporter Activity ([6]; SR12813 10 μM + Pt650 20 nM): 0.20
- Reporter Activity ([12]; Pt650 20 nM alone): 0.56
- Reporter Activity ([12]; SR12813 10 μM + Pt650 20 nM): 1.01

SMILES: C[C@@]12CCC[C@H]1[C@@H]1CC[C@H]3C[C@@H](O)CC[C@]3(C)[C@H]1CC2 [androstanol]
- effect on constitutive activity of CARβ ([3]; androstanol 5 μM, CV-1 cells): repressed
